Experimental data: patent publication US8563742B2, “Substituted aminothiazole derivatives, pharmaceutical compositions, and methods of use” (High Point Pharmaceuticals, LLC, priority 2008, dated 2013)
Where no end group is shown, it is not given here.

Columns and labels:
[1] = rat, in vivo, po, 5 mg/kg; for Plasma:Brain Ratio: male, Sprague Dawley, 2 h
in vivo = details: male, Sprague Dawley, rat, po, 5 mg/kg
human MC-4R = molecular target: T1, human MC-4R (Homo sapiens, UniProt P32245); assay: Biological Assay: inhibition of AgRP functional interaction with MC-4R in presence of αMSH (cAMP production); type: cell-based; details: HEK293 cells expressing human MC-4R, AgRP83-132 and αMSH present; read-out: Average EC50 (nM) in Biological Assay
T1 construct: expressed in transfected cells
Procedure, shortened: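 HEK293 cells stably expressing human MC-4R (20,000/well) in EBSS/HEPES pH 7.4 with 0.5 mM IBMX. Compounds preincubated 30 min at room temperature with human AgRP83-132, then cells added and stimulated with αMSH 30 min at 37 °C. Intracellular cAMP measured after lysis; inhibition of AgRP seen as increased cAMP.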

[2] = Stability in Liver Microsomes (mouse); type: in vitro ADME; details: 1 μM, 0.5 mg protein/mL, NADPH, 60 minutes, 37° C., pH 7.4
Description: (§1) Various compounds were tested for their stability in human, monkey, dog, rat, and mouse liver microsomes. At a final concentration of 1 μM, compounds were incubated with either human, monkey, dog, rat, or mouse liver microsomes (0.5 mg protein/mL) in the presence of an NADPH-solution for 60 minutes at 37° C., pH 7.4 in phosphate buffer. Incubations were performed in duplicate. Reactions were terminated by the addition of methanol. The incubation solution was vortexed and transferred into a 96-well plate. The plate was sealed and centrifuged at approximately 3500 rpm for approximately 10 minutes. After centrifugation, the plate was loaded into 96-well plate autosampler and analyzed by LC/MS. Values are reported as percent of compound remaining after 1 hour.

[3] = Stability in Liver Microsomes (monkey); type: in vitro ADME; details: 1 μM, 0.5 mg protein/mL, NADPH, 60 minutes, 37° C., pH 7.4
Description: as §1

[4] = Stability in Liver Microsomes (rat); type: in vitro ADME; details: 1 μM, 0.5 mg protein/mL, NADPH, 60 minutes, 37° C., pH 7.4
Description: as §1

[5] = Stability in Liver Microsomes (human); type: in vitro ADME; details: 1 μM, 0.5 mg protein/mL, NADPH, 60 minutes, 37° C., pH 7.4
Description: as §1

[6] = tested on: adult male Sprague Dawley rats; assay: Feeding Study (icv AgRP, food intake and body weight); type: in vivo, Rat
Description: 27 adult male Sprague Dawley rats (Charles River Laboratories) were implanted with right lateral cerebral ventricular cannulas and allowed to recover for one week. After one week, animals were then randomized into 4 groups that were matched for food intake and body weight: water gavage-icv saline (n=6); Example 7 gavage-icv saline (n=7); water gavage-icv AgRP (n=7); Example 7 gavage-icv AgRP (n=7). Water or Example 7 (30 mg/kg) was administered at by oral gavage followed by icv injection of either saline or 0.2 nmol human AgRP 83-132. AgRP stimulated food intake and body weight gain over the next 24 h compared to saline controls. Both of these effects of AgRP were blocked by injection administration of Example 7.
On day 2 a second dose of Example 7 (30 mg/kg) or water was administered by oral gavage. On day 3, water or Example 7 (30 mg/kg) was administered for the third and final time by oral gavage followed by icv injection of either saline or 0.2 nmol human AgRP83-132. Food intake and body weight were monitored daily and animals were sacrificed on day 5.

[7] = Stability in Liver Microsomes (dog); type: in vitro ADME; details: 1 μM, 0.5 mg protein/mL, NADPH, 60 minutes, 37° C., pH 7.4
Description: as §1

[8] = Pharmacokinetic screening in rats (plasma and brain); details: rat, 5 mg/kg PO
OVX rats = assay: Sexual Behavior, sub-chronic regimen in OVX rats; type: in vivo, Rat; details: 30 mg/kg/day PO, 5 days
Description: Rats were ovariectomized (OVX) under ketamine/xylazine anesthesia with 8 rats per group. OVX rats were then administered estradiol benzoate (10 micrograms) 48 hours and progesterone (500 micrograms) 4 hours before five baseline tests of sexual behavior with sexually vigorous stud males. Tests were 30 minutes in duration and were conducted at 4-day intervals. All females developed normal rates of appetitive and consummatory sexual behavior. Following this baseline test phase, females were switched to an estrogen-alone baseline phase, during which they were administered estradiol benzoate (10 micrograms) 48 hours before tests of sexual behavior with sexually vigorous males. These tests were conducted at 14-day intervals, to assure low rates of appetitive responding (e.g., solicitations, hops and darts). After the second test, females were assigned randomly to 4 groups, a saline control, two doses of Example 7 antagonist (10 and 30 mg/kg, PO), and a positive control using melanotan II (MT-II) (1 mg/kg, SC). The saline control and Example 7 were gavaged daily for 5 days prior to the test. The MT-II control was injected acutely 5 min prior to the test. The test was recorded on video and scored by a technician blind to which drug the animals were receiving. Behaviors were subjected to one-way ANOVAs. For each significant effect, posthoc tests were conducted on the means using the Tukey method, P<0.05.

[9] = 30 mg/kg oral gavage + icv saline compared to water + icv saline
[10] = 30 mg/kg oral gavage, icv 0.2 nmol human AgRP 83-132, 24 h
[11] = 0.2 nmol icv, water gavage, next 24 h

T1 sequence (P32245 whole entry): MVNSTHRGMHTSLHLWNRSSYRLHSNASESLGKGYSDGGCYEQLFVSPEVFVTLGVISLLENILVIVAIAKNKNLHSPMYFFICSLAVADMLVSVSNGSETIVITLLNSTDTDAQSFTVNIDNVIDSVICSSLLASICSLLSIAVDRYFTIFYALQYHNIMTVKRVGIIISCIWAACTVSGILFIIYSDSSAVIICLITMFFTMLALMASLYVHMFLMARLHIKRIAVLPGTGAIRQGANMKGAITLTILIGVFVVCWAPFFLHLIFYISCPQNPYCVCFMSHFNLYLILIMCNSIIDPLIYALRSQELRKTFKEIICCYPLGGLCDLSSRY

| Plasma:Brain Ratio [1] | concentration at 2 h (in vivo; Brain - 2 hours (ng/g)) [ng/g] | concentration at 2 h (in vivo; Plasma - 2 hours (ng/mL)) [ng/mL] | EC50 (human MC-4R) [nM] | Stability in Liver Microsomes (% remaining after 1 hour incubation) Mouse [2] [%] | Stability in Liver Microsomes (% remaining after 1 hour incubation) Monkey [3] [%] | Stability in Liver Microsomes (% remaining after 1 hour incubation) Rat [4] [%] | Stability in Liver Microsomes (% remaining after 1 hour incubation) Human [5] [%] | Stability in Liver Microsomes (% remaining after 1 hour incubation) Dog [7] [%] | Molecule | also measured |
| --- | --- | --- | --- | --- | --- | --- | --- | --- | --- | --- |
| 2.6:1 | 1460 | 3780 | 241 |  |  |  |  |  | CCc1ccc(CN(CCC(=O)[O-])c2nc(C3CCC(C)CC3)cs2)s1.[Na+] (centres unmarked) [Example 5, Sodium; 3-{(5-ethyl-thiophen-2-ylmethyl)-[4-(4-methyl-cyclohexyl)-thiazol-2-yl]-amino}-propionate] |  |
|  |  |  | 159 | 68 | 67 | 57 | 78 | 66 | Cc1ccc(CN(CCC(=O)[O-])c2nc([C@H]3CC[C@H](C(C)(C)C)CC3)cs2)s1.[Na+] [Example 7, Sodium; 3-[[4-(trans-4-tert-butyl-cyclohexyl)-thiazol-2-yl]-(5-methyl-thiophen-2-ylmethyl)-amino]-propionate] | effect on food intake, icv saline [6, 9]: no significant effect; effect on weight gain, icv saline [6, 9]: no significant effect; cumulative weight gain over the entire period, Example 7 + icv AgRP ([6]; 30 mg/kg oral gavage days 1, 2, 3, icv AgRP days 1 and 3, to day 5): less than 15 grams; effect on AgRP stimulated body weight gain [6, 10]: blocked; effect on AgRP stimulated food intake [6, 10]: blocked; concentration at 2 h ([8]; male, Sprague Dawley, plasma, po, 5 mg/kg, Plasma - 2 hours (ng/mL), 2 hour time point): 6460 ng/mL; Brain - 24 hours AUC (h * ng/g) ([8]; 24 hour study): ++++ (values above 20,000 h*ng/g); increase of mean frequency of high-intensity lordosis postures, factor relative to saline (OVX rats): 3.5; increase of mean number of solicitations, factor relative to saline (OVX rats): 6; increase of mean frequency of high-intensity lordosis postures, factor relative to MT-II (OVX rats; MT-II 1 mg/kg SC): 3.2; increase of mean number of solicitations, factor relative to MT-II (OVX rats; MT-II 1 mg/kg SC): 2 |
| 3.3:1 | 1580 | 5160 | 210 | 88 | 84 | 88 | 93 | 91 | CCc1ccc(CN(CCC(=O)[O-])c2nc([C@H]3CC[C@H](C(C)(C)C)CC3)cs2)s1.[Na+] [Example 8, Sodium; 3-[[4-(trans-4-tert-butyl-cyclohexyl)-thiazol-2-yl]-(5-ethyl-thiophen-2-ylmethyl)-amino]-propionate] |  |
|  |  |  | 274 | 69 | 74 | 66 | 82 | 92 | Cc1ccc(CN(CCC(=O)[O-])c2nc([C@H]3CC[C@H](C(C)C)CC3)cs2)s1.[Na+] [Example 9, Sodium; 3-[[4-(4-trans-isopropyl-cyclohexyl)-thiazol-2-yl]-(5-methyl-thiophen-2-ylmethyl)-amino]-propionate] | Plasma - 2 hours [1]: 3062 ng/mL |
| 4.0:1 | 1910 | 7620 | 275 |  |  |  |  |  | CCc1ccc(CN(CCC(=O)[O-])c2nc(C3CCC(c4ccccc4)CC3)cs2)s1.[Na+] (centres unmarked) [Example 39, Sodium; 3-{(5-ethyl-thiophen-2-ylmethyl)-[4-(4-phenyl-cyclohexyl)-thiazol-2-yl]-amino}-propionate] |  |
| 1.9:1 | 536 | 1040 | 76 |  |  |  |  |  | Cc1ccc(CN(CCC(=O)[O-])c2nc(C3(C)CCC(C)CC3)cs2)s1.[Na+] (centres unmarked) [Example 46, Sodium; 3-[[4-(1,4-dimethyl-cyclohexyl)-thiazol-2-yl]-(5-methyl-thiophen-2-ylmethyl)-amino]-propionate] |  |
| 1.5:1 | 2110 | 3080 |  | 99 | 64 | 91 | 82 | 95 | O=C([O-])CCN(Cc1cccs1)c1nc(-c2ccc(-c3ccccc3)cc2)cs1.[Na+] [Reference Compound B, Sodium 3-[(4-biphenyl-4-yl-thiazol-2-yl)-thiophen-2-ylmethylamino]-propionate, reference compound] |  |
| 2.0:1 | 1240 | 2460 |  |  |  |  |  |  | C[C@H]1CC[C@H](Oc2ccc(-c3csc(N(CCC(=O)[O-])Cc4cccs4)n3)cc2)CC1.[Na+] [Reference Compound C, Sodium 3-({4-[4-(trans-4-methyl-cyclohexyloxy)-phenyl]-thiazol-2-yl}-thiophen-2-ylmethyl-amino)-propionate, reference compound] |  |
|  |  |  |  |  |  |  |  |  | AgRP: AgRP83-132 (human, Phoenix Pharma, cat no. 003-53), Agouti related protein fragment given icv (SSRRCVRLHESCLGQQVPCCDPCATCYCRFFNAFCYCRKLGTAMNPCSRT; ends and bridges not checked; cysteine pairing not given here; UniProt O00253 83-132, looked up, fragment) [reference compound] | cumulative weight gain over the entire period, icv AGRP + H2O ([6]; 0.2 nmol icv days 1 and 3, water gavage, to day 5): above 30 grams; body weight gain after icv AgRP compared to saline controls [6, 11]: stimulated; food intake after icv AgRP compared to saline controls [6, 11]: stimulated |
